The values below come from patent US4943579A, “Water soluble prodrugs of camptothecin” (priority 1987, dated 1990).

Converted amounts (≈) assume the structure as drawn. Where a name gives a salt, the structure may show the parent alone. Read-outs that look alike come from different tables or passages of the source.

One data set is described as follows: Aqueous solubility. In kind it is physicochemical. The note with it: water. As to the method: (§1) Table 1 represents the aqueous solubility and the anti-tumor activity of these compounds. The anti-tumor testing was carried out in CDF-1 mice in which were implanted L-1210 lymphoid leukemia, and the drug is delivered intraperitoneally on a schedule of QD4X2.
The next data set relates to L-1210 lymphoid leukemia. Kind of data set: Anti-tumor activity in CDF-1 mice implanted with L-1210 lymphoid leukemia (IP/IP, QD4 × 2). In kind it is in vivo. To be noted: Mus musculus, read-out: T/C; for response vs control in vivo at 50 mg/kg: 50 mg/Kg per injection; for response vs control in vivo at 30 mg/kg: 30 mg/Kg per injection. As to the method:
as §1

Data set [1] in a line: In vitro human plasma hydrolysis of prodrugs. To be noted: initial drug concentration 50 mcg/ml, read-out: t1/2 of hydrolysis in human plasma. It is filed as in vitro ADME. The source says:
(§2) The data are shown to reflect the relative hydrolysis rates as measured by t1/2, the time required for the concentration of the drug to become one half of the starting concentration. Freshly obtained samples of human and murine plasma were used in these studies.
(§3) ^(a) Initial drug concentration (50 mcg/ml)

Data set [2] can be described thus: In vitro murine plasma hydrolysis of prodrugs. To be noted: mouse, initial drug concentration 50 mcg/ml, read-out: t1/2 of hydrolysis in murine plasma. It is filed as in vitro ADME.
Description: as §2, §3

The conditions of data set [3]: cited from earlier work.
For data set [4] the following is noted: preclinical, beagle and rhesus monkey; cited from earlier work.
The next data set concerns leukemia L-1210. The note with it: mice; cited from earlier work.
For the next data set, the system named is Walker 256 tumor. The note with it: rats; cited from earlier work.
For data set [5] the following is noted: subsequent biological evaluation in earlier reports; cited from earlier work.
For data set [6] the following is noted: animal models; Wani et al. 1980; cited from earlier work.
For data set [7] the following is noted: early clinical studies; cited from earlier work.

Take `CC[C@@]1(OC(=O)C(N)CCCCCN)C(=O)OCc2c1cc1n(c2=O)Cc2cc3ccccc3nc2-1` (some centres unmarked) [Formula 12]: the solubility in the data set “Aqueous solubility” (read-out: Aqueous solubility) came out at 15000 µg/mL. The response vs control in vivo at 50 mg/kg in the data set on L-1210 lymphoid leukemia (L1210, IP/IP, QD4 × 2) was determined as 253%. Also, the half-life in data set [1] was 20 min; in data set [2], 48 min.
`CC[C@@]1(O)C(=O)OCc2c1cc1n(c2=O)Cc2cc3ccccc3nc2-1` [Camptothecin]: the concentration in solution in “Aqueous solubility” (solubility) came to 50 µg/mL (≈ 144 µM). In addition, in the data set on L-1210 lymphoid leukemia (L1210, ip), the response vs control in vivo at 8 mg/kg came out at 197%. In [3] (aqueous vehicles suitable for parenteral administration), the “Solubility in aqueous vehicles” value is “practically insoluble”. For the same compound, in [4], the “Eosinophilia and bone marrow depression” value was “moderate eosinophilia and bone marrow depression”; the Hepatotoxicity entry was “Minimal hepatotoxicity”; the “Major dose-limiting toxic effect” value is “Hemorrhagic enterocolitis”. Besides, in the data set with leukemia L-1210, the “Carcinostatic activity, leukemia L-1210” value is recorded as “inhibitor activity”. Also, in the data set with Walker 256 tumor, the “Carcinostatic activity, Walker 256 tumor” value is reported as “inhibitor activity”. The Toxicity result in data set [5] is on record as “highly toxic”.
As to `CC[C@@]1(OC(=O)CNC)C(=O)OCc2c1cc1n(c2=O)Cc2cc3ccccc3nc2-1` [Formula 8], in “Aqueous solubility” (read-out: Aqueous solubility), the solubility was determined as 4000 µg/mL. In the data set with L-1210 lymphoid leukemia (L1210, IP/IP, QD4 × 2), the response vs control in vivo at 30 mg/kg is 191%. The half-life worked out at 13 min in [1] and 28 min in data set [2].
Turning to `CC[C@@]1(OP(=O)(O)O)C(=O)OCc2c1cc1n(c2=O)Cc2cc3ccccc3nc2-1` [Formula 15, Camptothecin-20-phosphate sodium salt], in the data set “Aqueous solubility” (read-out: Aqueous solubility), the solubility came to 8000 µg/mL. Also, the response vs control in vivo at 44 mg/kg in the data set on L-1210 lymphoid leukemia (L1210, 44 mg/Kg per injection, IP/IP, QD4 × 2) came out at 192%. In addition, the half-life stood at 20 min in data set [1] and 27 min in data set [2].
Take `CC[C@@]1(OC(=O)C(N)CCC(=O)O)C(=O)OCc2c1cc1n(c2=O)Cc2cc3ccccc3nc2-1` (some centres unmarked) [Formula 13]: the solubility in the data set “Aqueous solubility” (read-out: Aqueous solubility) turned out to be 6000 µg/mL. The response vs control in vivo at 50 mg/kg in the data set on L-1210 lymphoid leukemia (L1210, IP/IP, QD4 × 2) worked out at 154%. In addition, the results for the half-life in data set [1] and in data set [2] were 18 min and 35 min, respectively.
`CCN(CC)CC(=O)O[C@]1(CC)C(=O)OCc2c1cc1n(c2=O)Cc2cc3ccccc3nc2-1` [Formula 10, Camptothecin-20-O-(N,N-diethyl)glycinate.HCl]: the solubility in the data set “Aqueous solubility” (read-out: Aqueous solubility) came out at 5000 µg/mL. Moreover, the response vs control in vivo at 30 mg/kg in the data set on L-1210 lymphoid leukemia (L1210, IP/IP, QD4 × 2) was 256%. In data set [1], the half-life was found to be 45 min.
`CCNCC(=O)O[C@]1(CC)C(=O)OCc2c1cc1n(c2=O)Cc2cc3ccccc3nc2-1` [Formula 9]: in “Aqueous solubility” (read-out: Aqueous solubility), the solubility turned out to be 8000 µg/mL. Besides, in the data set with L-1210 lymphoid leukemia (L1210, IP/IP, QD4 × 2), the response vs control in vivo at 30 mg/kg was determined as 170%. Also, the half-life worked out at 18 min in data set [1] and 40 min in data set [2].
For `CC[C@@]1(OC(=O)CN)C(=O)OCc2c1cc1n(c2=O)Cc2cc3ccccc3nc2-1` [Formula 7, Camptothecin-20-O-glycinate.HCl], the solubility in the data set “Aqueous solubility” (read-out: Aqueous solubility) came out at 6000 µg/mL. In the data set on L-1210 lymphoid leukemia (L1210, 15 mg/Kg per injection, IP/IP, QD4 × 2), the response vs control in vivo at 15 mg/kg was found to be 162%. Besides, the half-life in data set [1] amounted to 15 min; in data set [2] it was 36 min.
Take `CC[C@@]1(OC(=O)CCC(=O)O)C(=O)OCc2c1cc1n(c2=O)Cc2cc3ccccc3nc2-1` [Formula 14, Camptothecin-20-O-hemisuccinate sodium salt]: in “Aqueous solubility” (read-out: Aqueous solubility), the solubility was 13000 µg/mL. In addition, the response vs control in vivo at 47 mg/kg in the data set with L-1210 lymphoid leukemia (L1210, 47 mg/Kg per injection, IP/IP, QD4 × 2) came to 200%. The half-life in data set [1] came to 16 min; in data set [2], 40 min.
`CC[C@@](O)(C(=O)O)c1cc2n(c(=O)c1CO)Cc1cc3ccccc3nc1-2` [Sodium camptothecin]: in [3] (in water), the Solubility in water is > 50000 µg/mL. In addition, in data set [6], the “Potency relative to parent camptothecin” value is reported as 10-20%. In [7], the Clinical outcome was “disappointing” and the Clinical toxicity result is reported as “unexpected toxicity that precluded achievement of therapeutically useful doses”.
